In patent US12384775B2, “Pyrimid-2-yl-pyrazole compounds as IRAK inhibitors” (Rigel Pharmaceuticals, Inc., priority 2022, dated 2025):

What was measured:
[1] = system: TLR4-induced IL-23 production in human primary dendritic cells (DC); experiment: IL23-p19 ELISA, dendritic cells (DC), LPS; format: cell-based; conditions: Dendritic cell; dendritic cells from human PBMC, IFNγ primed, LPS 1 μg/ml, 18 h; read-out: IL23-p19 ELISA, Dendritic, LPS, 10 pt EC50
Procedure: Human PBMC cells (400 million) obtained from the vendor were transferred into a T-175 flask containing 15 ml RPMI media (10% FBS) and incubate for 2 hours at 37° C. After 2 hours, the media including floating cells was aspirated out carefully and 12 ml of fresh RPMI media (10% FBS) containing GMCSF (100 ng/ml) and IL4 (20 ng/ml) was added, and the flask was kept in a 37° C. incubator for 7 days.
After 3 days, fresh GMCSF (100 ng/ml) and IL4 (20 ng/ml) were added to the flask and the incubation continued. After 7 days, the fully differentiated cells were harvested by spinning down (1200 rpm/5 min) and aspirating the media. […]
155 μl of the supernatant was harvested from each well carefully (without the tip touching the bottom of the well) and to the remaining 50 μl/well of the cell culture plate was added 50 μl of Cell Titer Glo reagent. The mixture was incubated for 1-2 minutes on a shaker and the plate was read for luminescence intensity to determine the compound cytotoxicity. […]
After 45 minutes, the plates were washed with TBST 4× and 100 ul/well Super Signal ELISA Pico Chemiluminescent Substrate from Pierce (3.5 ml A+3.5 ml B+3.5 ml MQ water) was added. The plates were shaken for 1-2 minutes then read on a plate reader. […]

[2] = system: TLR4-dependent cytokine production in mouse macrophages; experiment: TLR4-dependent cytokine production in mouse macrophages; format: cell-based

CCO[C@H]1CC[C@H](n2cc(NC(=O)c3csc(-c4cn[nH]c4)n3)c(-c3ncccn3)n2)CC1 [Compound I-1, N-(1-((1r,4r)-4-ethoxycyclohexyl)-3-(pyrimidin-2-yl)-1H-pyrazol-4-yl)-2-(1H-pyrazol-4-yl)thiazole-4-carboxamide]
EC50 [1]: 180 nM | TLR4-dependent cytokine production in mouse macrophages [2]: potent inhibitor
